US10512667B2, “Compositions and methods for treating conditions related to adrenocortical activity and/or excessive steroid production” (The Regents of the University of Michigan, priority 2017, dated 2019)
“Also recorded” adds a separate entry of the source.

Experiments:
H295R cells [1] = experiment: Cell morphology by phase contrast microscopy; type: cell-based; settings: 30 h, phase contrast, hydrochloride
Experimental: FIG. 4E: […] The cells were cultured with DMSO vehicle (upper images) or with 40 μM ATR-101 (lower images) alone (left images), or in combination with 1.5 mM MβCD (middle images), or in combination with 40 μM cholesterol (right images). Cell morphology was visualized by phase contrast microscopy using a 10× objective. The images are representative of 5 fields under each set of culture conditions. The scale bars denote 100 μm.

H295R cells [2] = experiment: Caspase 3/7 activity (Apo-ONE); type: cell-based; settings: H295R cells
Experimental: (§1) The samples were incubated for 18 h at room temperature in the dark. The fluorescence was measured using a SpectraMax M5 microplate reader with a 0.5 s acquisition time.

BD140C cells [3] = experiment: Caspase 3/7 activity (Apo-ONE); type: cell-based
Experimental: as §1

[4] = tested on: guinea pig adrenal glands; settings: cited from earlier work
ACC cell xenografts = settings: nude mice; cited from earlier work
H295R cells [5] = experiment: Visualization of cholesterol levels by filipin III binding; type: cell-based; settings: H295R cells; for cholesterol level / accumulation (filipin III binding), compound alone: serum-containing medium
Method in brief: (§2)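 Cells adhered 48 h, treated with compounds, fixed in 4% paraformaldehyde 20 min, then stained with 100 μg/ml filipin III for 2 h at 37 C in the dark and imaged. Esterification visualized after 2 h culture with 1 μM NBD-cholesterol following compound incubation.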

BD140C cells [6] = experiment: as above; type: cell-based; settings: 4 h
Method in brief: as §2

cholesterol-rich tissues = settings: cynomologous monkeys; cited from earlier work
H295R cells [7] = experiment: Cholesterol crystallization and extracellular cholesterol associated with cells; type: cell-based
Experimental: To quantify cholesterol crystallization, experiments were conducted that measured the total extracellular cholesterol that was associated with the cells. After culturing cells with the indicated compounds, the culture medium was removed. Medium lacking cholesterol was added to the cells, and the extracellular cholesterol that was released into the wash medium was collected after 30 seconds. To establish if the cholesterol that was released from the cells was exported by ABCA1, the wash step was performed in parallel using media with and without 50 μM glibenclamide, which inhibits ABCA1 activity. The total amount of cell-associated cholesterol that was released into the wash medium was measured using a fluorometric enzyme-linked assay (Cayman Chemical). Cholesterol esters were hydrolyzed using cholesterol esterase. Cholesterol was oxidized by cholesterol oxidase, producing hydrogen peroxide. The hydrogen peroxide was reacted with 10-acetyl-3,7-dihydroxyphenoxazine (ADHP) in the presence of horseradish peroxidase to produce resorufin. Resorufin fluorescence was measured using 555 nm exitation and 590 nm emission wavelengths in a SpectraMax M5 microplate reader (Molecular Devices).
The medium was removed and replaced with 50 μl serum-free medium supplemented with 5 μg/mL apo-AI (without or with 50 μM glyburide to detect ABCA1 transporter-dependent efflux) for either 30 sec or 1 h at 37 C in 5% CO2 atmosphere. After the indicated time, the supernatant, was transferred to a new 96-well plate and a fluorometric-base cholesterol detection assay cocktail was added.

ABCG1 = experiment: Transcript measurement by qPCR in H295R cells; type: cell-based
Experimental: (§3) mRNA was isolated (Qiagen), and was reverse transcribed using the Transcriptor First Strand cDNA synthesis kit (Roche). The relative amounts of cDNAs corresponding to the indicated transcripts were quantified using qPCR assays with specific primers (Table 2).
(§4) H295R cells were seeded in 6-well tissue culture plates (Corning #3506) at a density of 5 X105 per well. After 48 h, the compound(s) indicated were added, and the cells were cultured for the indicated time. The cells were harvested in 1.35 ml culture medium with trypsin. The cells were collected by centrifugation and lysed in 350 μl of RLT buffer (Qiagen) with β-mercaptoethanol. mRNA extraction and DNase treatment were performed according to the manufacturer's protocol (Qiagen). All RNA samples had 260/280 ratios greater than 1.5. The same amount of RNA ranging from 0.1 to 0.5 μg was used for reverse transcription using the Roche Transcriptor First Strand cDNA synthesis kit (Roche #04897030001) using the manufacturer's protocol. SYBR Green I-based real-time qPCR assays were performed using a Roche LightCycler480 instrument. The levels of transcripts in different samples were normalized by the levels of RPL9 transcripts.

CHOP = experiment: Transcript measurement by qPCR in H295R cells; type: cell-based; settings: 4 h
Experimental: as §3, §4

CYP17A1 = experiment: Transcript measurement by qPCR in H295R cells; type: cell-based; settings: H295R cells cultured with ATR-101
Experimental: as §3, §4

IDOL = experiment: Transcript measurement by qPCR in H295R cells; type: cell-based; settings: within an hour after addition
Experimental: as §3, §4

HSD3B2 = experiment: Transcript measurement by qPCR in H295R cells; type: cell-based; settings: H295R cells cultured with ATR-101
Experimental: as §3, §4

SULT2A1 = experiment: Transcript measurement by qPCR in H295R cells; type: cell-based; settings: H295R cells cultured with ATR-101
Experimental: as §3, §4

ABCA1 = experiment: Transcript measurement by qPCR in H295R cells; type: cell-based
Experimental: as §3, §4

adrenal cortex = settings: in vivo; cited from earlier work
ACAT = settings: cited from earlier work

CC(C)c1cccc(C(C)C)c1NC(=O)NCC1(c2ccc(N(C)C)cc2)CCCC1.Cl [ATR-101, N-(2,6-bis(1-methylethyl)phenyl)-N′-((1-(4-(dimethylamino)phenyl)cyclopentyl)methyl)urea hydrochloride]
cell morphology, compound alone (H295R cells [1]): small, rounded and weakly attached to the plate
time after ATR-101 addition at which caspase activation was detected (H295R cells [2]; 100 μM ATR-101): 15 min
caspase 3/7 activity, compound alone (H295R cells [2]; serum-containing medium, 4 h): increased the caspase 3/7 activity
caspase 3/7 activity, compound alone (H295R cells [2]; serum-containing medium, 24 h): increased the caspase 3/7 activities
caspase 3/7 activity, compound alone (H295R cells [2]; serum-free medium, 4 h): caused ATP depletion and caspases activation with the same potency
caspase 3/7 activity, compound alone (BD140C cells [3]; 4 h): increased the caspase 3/7 activity
caspase 3/7 activity, compound alone (BD140C cells [3]; 24 h): increased the caspase 3/7 activities
increase of the cholesterol level of adrenal glands ([4]; after 24 hours): 3 fold
onset of rise of the cholesterol level of adrenal glands ([4]; after ATR-101 administration): rises within an hour
establishment and growth of ACC cell xenografts (ACC cell xenografts): inhibits the establishment and impedes the growth
cholesterol level / accumulation (filipin III binding), compound alone (H295R cells [5]; 24 h): increase in intracellular cholesterol
cholesterol level / accumulation (filipin III binding), compound alone (H295R cells [5]; up to 4 h, hydrochloride): caused cholesterol accumulation in or near the plasma membrane; also recorded: increase in cholesterol accumulation in the plasma membrane; also recorded: higher levels of filipin III binding to the plasma membrane
cholesterol level (filipin III binding), compound alone (H295R cells [5]; serum-free medium containing apoA-I, 4 h, hydrochloride): increased the level of cholesterol in intracellular membranes; also recorded: increased the cholesterol levels; also recorded: higher cholesterol levels
cholesterol level / accumulation (filipin III binding), compound alone (BD140C cells [6]): caused cholesterol accumulation in or near the plasma membrane
tissue distribution of toxicity (cholesterol-rich tissues): limited to cholesterol-rich tissues, including the adrenal cortex, the corpus luteum, and sebaceous glands
cholesterol crystallization at the plasma membrane, compound alone (H295R cells [7]; 40 μM ATR-101, 24 h, hydrochloride): associated with crystals that emanated from the cell membrane; also recorded: cholesterol crystallization at the plasma membrane
total extracellular cholesterol associated with cells (H295R cells [7]; 4 h, 100 μM ATR-101 or 40 μM cholesterol): increased the total extracellular cholesterol
ABCG1 transcript level (ABCG1; 4 h): inhibited
ABCG1 transcript level (ABCG1; within an hour after addition): reduced
CHOP transcript level (CHOP): activated
CYP17A1 transcript level (CYP17A1): reduced
IDOL transcript level (IDOL): reduced
HSD3B2 transcript level (HSD3B2): reduced
SULT2A1 transcript level (SULT2A1): reduced
ABCA1 transcript level (ABCA1; 4 h): inhibited
ABCA1 transcript level (ABCA1; within an hour after addition): reduced
adrenalytic activity (adrenal cortex): has adrenalytic activity
ACAT activity (ACAT): inhibit ACAT activity
